Reference: PubChem BioAssay (NCI)
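Step 1: Grow cells in 96-well plates. Step 2: Expose to compound for 48 hours at 5 concentrations. Step 3: Interpolate endpoints linearly; if unreached, use highest concentration. At the GI50, growth is halved. TGI denotes the concentration required for complete inhibition of growth.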

Assays:
Assay in all cases: NCI tumour cell line growth inhibition, 48 h
A498 renal = system: A498 renal
DU-145 prostate = system: DU-145 prostate
HOP-92 NSCLC = system: HOP-92 NSCLC
LOX IMVI melanoma = system: LOX IMVI melanoma
MALME-3M melanoma = system: MALME-3M melanoma
NCI-H226 lung = system: NCI-H226 lung
NCI-H522 lung = system: NCI-H522 lung
SF-268 CNS = system: SF-268 CNS
SK-MEL-2 melanoma = system: SK-MEL-2 melanoma
SW-620 colon = system: SW-620 colon

Structure (SMILES)	TGI (A498 renal) [µM]	TGI (DU-145 prostate) [µM]	TGI (HOP-92 NSCLC) [µM]	TGI (LOX IMVI melanoma) [µM]	TGI (MALME-3M melanoma) [µM]	TGI (NCI-H226 lung) [µM]	TGI (NCI-H522 lung) [µM]	TGI (SF-268 CNS) [µM]	TGI (SK-MEL-2 melanoma) [µM]	TGI (SW-620 colon) [µM]	GI50 (HOP-92 NSCLC) [µM]	GI50 (SF-268 CNS) [µM]
Cc1nc2ccc(S(=O)(=O)O)cc2c(=O)n1-c1ccc(C(=O)NN2C(=O)C(Cl)C2c2cccs2)cc1 (centres undefined)	> 100	> 100	> 100	> 100	> 100	> 100	> 100	44.3	54.1	> 100		
N#CC1=C(S)N(C2OC(CO)C(O)C(O)C2O)C(c2ccccc2)=CC1c1ccco1 (centres undefined)	> 100	> 100	> 100	93	> 100	> 100	> 100	> 100	> 100			
CC(C)(C)n1c(=O)n2c(-c3ccccc3)c(-c3ccccc3)n2c1=O	> 100	> 100	> 100	> 100	> 100	> 100	56.5	> 100	85.3	> 100		
Cc1nc2ccc(N=Nc3c(C)noc3C)cc2[nH]1	34.8	> 100	60.2	39.2	> 100	> 100	> 100	> 100	> 100	> 100		
COc1ccc(NC(=S)c2ccc([N+](=O)[O-])o2)cc1	29.1	10.2	30.6	4.33	7.83	8.75	2.92	9.76	4.15	2.9		
CC(C)C(=O)Cc1ccc2ccccc2n1	> 100	> 100	> 100	> 100	> 100	> 100	> 100	> 100	> 100	> 100		
N/C(=N\N=C\c1nc2ccccc2o1)c1cnccn1	> 100	> 100	> 100	> 100	4.38	> 100	> 100	> 100	> 100	> 100		
O[C@@H]1[C@H](OC2c3ccccc3-c3ccccc32)[C@H](OCc2ccccc2)[C@@H]2OC[C@H]1O2	> 100	> 100	> 100	> 100	> 100	> 100	> 100	> 100	> 100	> 100		
C=CCN(c1cc(O)c2c(c(C)cn2S(=O)(=O)c2ccccc2)c1[N+](=O)[O-])S(C)(=O)=O	> 100	> 100	> 100	> 100	> 100	> 100	> 100	> 100	> 100	> 100		
CC(C)=CCC[C@@H](C)C1=C(N)C(O)=C(C)C(=O)C1=O	> 75	> 75	> 75	> 75	> 75	> 75	50.9	> 75	> 75	> 75		
NC1=C(c2nc(-c3ccccc3)cs2)C(c2ccco2)c2c(c3ccccc3oc2=O)O1 (centres undefined)	> 100	> 100	> 100	> 100	> 100	> 100	> 100	> 100	> 100	> 100		
CO/C(N)=C(\C#N)N=Cc1ccsc1	> 100	> 100	> 100	36.7	> 100	> 100	79.6	> 100	> 100	> 100		
Cc1cnc2[nH]c(-c3cccc4ccccc34)cc(=O)c2c1	0.00286	> 100	33.5	79.6	0.000989	59.9	0.00072	> 100	> 100	> 100	0.0464	6.51
Cc1cn([C@H]2C[C@@H](N3C(=O)c4ccccc4C3=O)[C@@H](CO[Si](C)(C)C(C)(C)C)O2)c(=O)[nH]c1=O	> 100	> 100	> 100	> 100	> 100	> 100	> 100	> 100	> 100	> 100		
CCOc1ccc(NC(=O)C(=O)C(/C(=N/N)C(=O)OC)c2nc3ccc([N+](=O)[O-])cc3[nH]c2=O)cc1 (centres undefined)	> 100	> 100	> 100	> 100	> 100	> 100	> 100	> 100	> 100	> 100		
CCN(CC)/[N+]([O-])=N/OS(=O)(=O)N(C)C	> 100	> 100	> 100	> 100	> 100	> 100	> 100	> 100		> 100		
CC[C@@H]1CC[C@@H]2[C@H](CC[C@]3(C)[C@@H](O[N+](=O)[O-])CC[C@@H]23)[C@H]1C(C)=O	95.9	> 100	70.2	39.5	65.3	> 100	80.9	> 100		> 100		
